Each compound was assayed against T1, Na ^+/H ^+-Exchangers von Kaninchenerythrocyten (Oryctolagus cuniculus, UniProt P23791) (assay: Inhibition of the Na+/H+ exchanger of rabbit erythrocytes (amiloride-sensitive sodium influx, flame photometry)). Settings: hyperosmolar salt-sucrose medium, pH 7,4, 37°C, read-out: IC50 Inhibition des Na ^+/H ^+ -Exchangers.
T1 construct: den Na ^+-Influx in die Erythrocyten via Na ^+/H ^+-Austausch flammenphotometrisch bestimmen zu können; from tissue; host or cells: Erythrocytes in whole blood from the ear arteries of cholesterol-fed New Zealand White rabbits
T1 sequence (P23791 whole entry): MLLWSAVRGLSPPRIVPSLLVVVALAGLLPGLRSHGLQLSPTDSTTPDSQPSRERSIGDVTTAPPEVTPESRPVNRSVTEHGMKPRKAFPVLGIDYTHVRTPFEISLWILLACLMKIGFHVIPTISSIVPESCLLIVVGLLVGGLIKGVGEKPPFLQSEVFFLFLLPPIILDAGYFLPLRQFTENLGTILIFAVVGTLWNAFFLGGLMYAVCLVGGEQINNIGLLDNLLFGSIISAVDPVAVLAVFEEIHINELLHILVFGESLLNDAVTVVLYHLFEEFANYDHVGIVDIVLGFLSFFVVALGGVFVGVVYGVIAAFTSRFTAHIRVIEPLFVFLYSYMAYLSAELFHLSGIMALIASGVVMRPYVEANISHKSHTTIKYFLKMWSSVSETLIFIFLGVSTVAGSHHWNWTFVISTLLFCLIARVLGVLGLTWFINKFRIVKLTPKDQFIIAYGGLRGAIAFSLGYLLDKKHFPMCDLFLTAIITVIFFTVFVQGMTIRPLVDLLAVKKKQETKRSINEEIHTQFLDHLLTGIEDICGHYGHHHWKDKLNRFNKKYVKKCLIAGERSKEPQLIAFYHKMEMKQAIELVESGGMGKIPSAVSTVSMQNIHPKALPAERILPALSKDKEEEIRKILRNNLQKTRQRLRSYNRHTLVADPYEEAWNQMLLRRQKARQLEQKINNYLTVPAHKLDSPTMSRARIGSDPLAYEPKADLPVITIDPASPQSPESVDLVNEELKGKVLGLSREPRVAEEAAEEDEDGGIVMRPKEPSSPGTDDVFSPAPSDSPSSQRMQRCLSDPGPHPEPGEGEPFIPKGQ
Assay type: cell-based, Kaninchen
Text: Inhibition des Na ^+/H ^+-Exchangers von Kaninchenerythrocyten Weiße Neuseeland-Kaninchen (Ivanovas) erhielten eine Standard-Diät mit […] für sechs Wochen, um den Na ^+ /H ^+-Austausch zu aktivieren und so den Na ^+-Influx in die Erythrocyten via Na ^+/H ^+-Austausch flammenphotometrisch bestimmen zu können. Das Blut wurde den Ohrarterien entnommen und durch 25 IE Kalium-Heparin ungerinnbar gemacht. Ein Teil jeder Probe wurde zur Doppelbestimmung des Hämatokrits durch Zentrifugieren benutzt. Aliquots von jeweils 100 µl dienten zur Messung des Na ^+-Ausgangsgehalts der Erythrocyten.
Um den Amilorid-sensitiven Natrium-Influx zu bestimmen, wurden 100 µl jeder Blutprobe in jeweils 5 ml eines hyperosmolaren Salz-Sucrose-Mediums (mmol/l: 140 NaCl, 3 KCl, 150 Sucrose, 0,1 Ouabain, 20 Tris-hydroxymethylaminomethan) bei pH 7,4 und 37°C inkubiert. Die Erythrocyten wurden danach dreimal mit eiskalter MgCl2-Ouabain-Lösung (mmol/l: 112 MgCl2, 0,1 Ouabain) gewaschen und in 2,0 ml destilliertem Wasser hämolysiert. Der intrazelluläre Natriumgehalt wurde flammenphotometrisch bestimmt.
Der Na ^+-Nettoinflux wurde aus der Differenz zwischen Natrium-Ausgangswerten und dem Natriumgehalt der Erythrocyten nach Inkubation errechnet. Der Amiloridhemmbare Natrium-Influx ergab sich aus der Differenz des Natriumgehalts der Erythrocyten nach Inkubation mit und ohne Amilorid 3 x 10^-4 mol/l. Auf diese Weise wurde auch bei den erfindungsgemäßen Verbindungen verfahren.
With `NC(N)=NC(=O)c1ccc(-c2ccc(C(=O)N=C(N)N)cc2)cc1` [Beispiel 4, Biphenyl-4,4'-dicarbonsäure-diguanidid] the IC50 was 2000 nM. Work on `NC(N)=NC(=O)c1ccc(-c2cccc(C(=O)N=C(N)N)c2)cc1` [Beispiel 1, 3-(4-Guanidinocarbonyl)phenyl-benzoylguanidin] yielded an IC50 of 1500 nM. Compound “4-(4-Guanidinocarbonyl)phenylsulfamoyl-benzoylguanidin [Beispiel 3]” has an IC50 of 1500 nM. `NC(N)=NC(=O)c1ccc(-c2ccccc2C(=O)N=C(N)N)cc1` [Beispiel 2, 2-(4-Guanidinocarbonyl)phenyl-benzoylguanidin] was tested, and the IC50 was 5000 nM. `NC(N)=NC(=O)c1ccc(S(=O)(=O)NC(=O)Nc2cccc(C(=O)N=C(N)N)c2)cc1` [Beispiel 5, 4[3-(Guanidinocarbonyl)phenylaminocarbonylaminosulfonyl]-benzoylguanidin] gave an IC50 of 10000 nM.

From patent publication EP0787717A1, “Substituted diaryl dicarboxylic acid diguanidines, process for their preparation, their use as inhibitors of the Na+/H+ exchange as well as medicament or diagnostic agent containing them” (HOECHST AKTIENGESELLSCHAFT, priority 1996, dated 1997)
